Laboratory results taken from paper PMC5034043 (The Journal of Biological Chemistry, 2016).
Entries after “also recorded” stand apart in the source; their conditions may differ.

Key:
[1] = system: alkylphenol-binding proteins within synaptosomes; assay: Fluorescent profiling: protection from AziPm-click (1) photolabeling of synaptosomes; design: species or system mouse; conditions: propofol 75–375 μM; ketamine 150–450 μM; triplicate
Protocol: (§1) Synaptosomes were resuspended to 1 mg of protein/ml in HEPES buffer medium (in mM: 140 NaCl, 5 KCl, 5 NaHCO3, 1.2 NaH2PO4, 1 MgCl2, 10 glucose, and 10 HEPES (pH 7.4)). […] The samples were allowed to equilibrate for 5 min before being transferred to a parafilm-sealed 1-mm path length quartz cuvette. The sample was then irradiated for 20 min at a peak bandwidth of 350 nm (Rayonet RPR-3500 lamp) ∼6 cm from the light source. Non-irradiated samples were left in the dark at ambient temperature (22–25 °C) for 20 min. All remaining procedures were conducted with restricted light exposure.

[2] = system: GABAA receptor subunits; assay: Western blotting of streptavidin-captured GABAA receptor subunits with ligand protection; type: binding, mouse; conditions: AziPm-click (1) 10 μM, protecting ligand 100 μM, UV irradiation; n = 4
Protocol: as §1
To 750 μg of photolabeled or control synaptosome samples, 40 μl of 10% SDS and 2 μl of 5 mM DTT in water were added. Samples were then vortexed, heated for 10 min at 65 °C, and then briefly cooled. Final concentrations of 150 μM azide-biotin (Click Chemistry Tools), 2 mM tris(3-hydroxypropyltriazolylmethyl)amine (Sigma), 1 mM ascorbic acid (Sigma), and 1 mM CuSO4·5H2O (Sigma) were added to each sample and vortexed vigorously. The samples were left in the dark at ambient temperature (22–25 °C) for 1 h with mild agitation. Directly to each sample 4× volume chilled methanol, 1.5× chilled chloroform, and 3× chilled double distilled H2O were added. Samples were vortexed vigorously and centrifuged at 1,400 × g for 30 min at 4 °C. […]

[3] = at even 100-fold higher concentrations than propofol; cited from earlier work
[4] = system: α1β2γ2 GABAA receptors; conditions: heterologously expressed receptors; cited from earlier work

Structure (SMILES) | fluorescent labeling of synaptosomal proteins by AziPm-click (1) in presence of protecting ligand [1] | protection of GABAA receptor α and β subunits from AziPm-click (1) capture [2] | immobilization [3] | activity on GABAA receptor [4]
CNC1(c2ccccc2Cl)CCCCC1=O (stereo not shown) [ketamine] | no changes in fluorescence intensity | – | – | –
CC(C)c1cccc(C(C)C)c1F [fropofol, 2-fluoro-1,3-diisopropylbenzene] | – | unable to protect | did not cause immobilization | did not modulate or disrupt propofol potentiation; also recorded: no activity
